Measurements taken from patent US20210023030A1 (priority 2018, published 2021).

Key:
[1] = molecular target: hydroxy-carboxylic acid receptor 2 (HCA2, GPR109A) (Mus musculus, UniProt Q9EP66); conditions: in vivo; cited from earlier work
histone acetylation = conditions: cited from earlier work
NLRP3 inflammasome = NLRP3 inflammasome (Homo sapiens, UniProt Q96P20); conditions: cited from earlier work
[2] = system: primary human intestinal organoids; assay type: cell-based; conditions: TNFα 40 ng/mL, 10 μM, 18 hours
Experimental: (§1) To measure the effect of (R)-3-HB on inflammation of primary human intestinal organoids, healthy large intestine samples of a donor were cultured for 8 weeks in vitro prior to experiments. Method as used in Hannan et al., Stem Cell Reports. Vol. 1, 293-306 Oct. 15, 2013.
1) To induce inflammation, organoids were treated with TNFα (40 ng/mL) alone or in combination with butyrate (10 μM), (R)-3-HB (10 μM), or butyrate and (R)-3-HB for 18 hours. Subsequently, cells were lysed and RNA was isolated for cDNA synthesis and measurement of mRNA expression levels of inflammation factors, NF-κB and TNFα, by qPCR.

[3] = system: primary human intestinal organoids; assay type: cell-based
Experimental: as §1
2) To induce inflammation, organoids were treated with TNF-α (40 ng/mL) alone or in combination with (R)-3-HB (sodium salts at 10 μM) for 18 hours. Subsequently, cells were lysed and RNA was isolated for cDNA synthesis and mRNA expression levels of a panel of inflammation factors was measured by qPCR.

[4] = system: primary human intestinal organoids; assay type: cell-based; conditions: TNF-α 60 ng/mL, 24 hours
Experimental: 3) The effect of (R)-3-HB and the related SCFA butyrate on the inflammatory response exerted by primary human intestinal organoids upon co-incubation with TNF-α as inflammatory stimulus was measured. Primary human intestinal organoids were cultured for 8 weeks prior to experiments as described in Hannan et al. (2013) Stem Cell Reports.
To induce inflammation, organoids were treated with 60 ng/mL TNF-α alone or in combination with different concentrations of the sodium salts of (R)-3-HB or butyrate for 24 hours. Subsequently, cells were lysed and RNA was isolated using the RNeasy mini kit (Qiagen Ltd, Germany) for synthesis of cDNA. mRNA expression levels of IL-23 was measured by qPCR using the SensiMix SYBR low-ROX kit (Bioline, UK).
Values were normalized versus untreated control and graphs show the difference of mRNA levels measured in organoids treated with TNF-α alone (set as 0) and those treated with TNF-α and butyrate or (R)-3-HB.

HCA2 receptor (gpr109A) = HCA2 receptor (gpr109A) (Mus musculus, UniProt Q9EP66); conditions: read-out: EC50 of binding to HCA2 receptor; cited from earlier work
Sequence of HCA2 receptor (gpr109A) (Q9EP66 whole entry): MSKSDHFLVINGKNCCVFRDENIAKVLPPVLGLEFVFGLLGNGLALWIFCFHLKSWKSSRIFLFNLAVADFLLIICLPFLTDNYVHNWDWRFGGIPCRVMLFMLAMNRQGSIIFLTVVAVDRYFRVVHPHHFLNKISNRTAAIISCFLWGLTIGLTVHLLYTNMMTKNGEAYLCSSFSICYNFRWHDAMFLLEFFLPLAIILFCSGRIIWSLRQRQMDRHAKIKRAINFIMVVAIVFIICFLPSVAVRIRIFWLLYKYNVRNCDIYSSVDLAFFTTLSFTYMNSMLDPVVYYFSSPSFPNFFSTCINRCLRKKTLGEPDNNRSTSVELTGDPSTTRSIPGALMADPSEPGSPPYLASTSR

[5] = TNF-α 40 ng/mL, sodium salt 10 μM, 18 hours

Sequence of hydroxy-carboxylic acid receptor 2 (HCA2, GPR109A) (Q9EP66 whole entry): as above
Sequence of NLRP3 inflammasome (Q96P20 whole entry): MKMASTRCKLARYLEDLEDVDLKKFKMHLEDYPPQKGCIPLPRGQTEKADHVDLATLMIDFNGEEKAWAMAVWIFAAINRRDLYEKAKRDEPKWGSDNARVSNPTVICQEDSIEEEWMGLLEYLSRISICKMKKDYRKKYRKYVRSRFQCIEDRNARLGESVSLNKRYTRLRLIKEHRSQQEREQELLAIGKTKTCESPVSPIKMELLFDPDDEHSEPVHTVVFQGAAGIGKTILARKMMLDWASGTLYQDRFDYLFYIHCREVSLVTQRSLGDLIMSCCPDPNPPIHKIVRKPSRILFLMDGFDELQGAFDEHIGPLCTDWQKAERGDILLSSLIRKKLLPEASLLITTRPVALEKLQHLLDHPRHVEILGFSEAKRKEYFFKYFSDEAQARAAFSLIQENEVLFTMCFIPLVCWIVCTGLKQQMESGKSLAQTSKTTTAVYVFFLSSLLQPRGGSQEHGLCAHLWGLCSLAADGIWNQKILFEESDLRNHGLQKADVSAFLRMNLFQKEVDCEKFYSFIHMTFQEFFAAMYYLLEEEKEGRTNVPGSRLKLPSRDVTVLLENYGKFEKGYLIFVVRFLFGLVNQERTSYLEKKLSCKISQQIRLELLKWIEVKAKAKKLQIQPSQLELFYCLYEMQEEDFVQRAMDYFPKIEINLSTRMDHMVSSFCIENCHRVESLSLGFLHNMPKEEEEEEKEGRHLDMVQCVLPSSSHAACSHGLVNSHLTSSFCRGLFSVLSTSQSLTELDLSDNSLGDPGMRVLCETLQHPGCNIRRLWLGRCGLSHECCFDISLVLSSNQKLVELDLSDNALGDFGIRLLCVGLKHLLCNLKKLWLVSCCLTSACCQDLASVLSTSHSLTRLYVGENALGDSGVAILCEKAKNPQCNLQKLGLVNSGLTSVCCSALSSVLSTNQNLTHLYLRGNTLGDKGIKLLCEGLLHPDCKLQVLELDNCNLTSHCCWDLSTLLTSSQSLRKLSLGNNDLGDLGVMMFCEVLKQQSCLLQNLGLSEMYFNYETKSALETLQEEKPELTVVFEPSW

| SMILES | concentration associated with neuroprotection [1] | concentration that increases histone acetylation in a dose dependent manner (histone acetylation) | concentration that reduced NLRP3 inflammasome activity (NLRP3 inflammasome) | NF-κB mRNA expression [2] | TNF-α mRNA expression [2] | IL-1β mRNA expression vs TNF-α alone [3, 5] | IL-6 mRNA expression vs TNF-α alone [3, 5] | IL-10 mRNA expression vs TNF-α alone [3, 5] | IL-23 mRNA expression vs TNF-α alone [3, 5] | NF-κβ mRNA expression vs TNF-α alone [3, 5] | TGF-β1 mRNA expression vs TNF-α alone [3, 5] | TNF-α mRNA expression vs TNF-α alone [3, 5] | effect on pro-inflammatory regulators of IBD compared with butyrate ([3]; data not shown) | effect on protective regulators of intestinal inflammation compared with butyrate ([3]; data not shown) | impact on IL-23 expression compared with butyrate ([4]; 10-100 μM) | concentrations effective at reducing expression of IL-23 ([4]; sodium salt) | EC50 (HCA2 receptor (gpr109A)) |
| --- | --- | --- | --- | --- | --- | --- | --- | --- | --- | --- | --- | --- | --- | --- | --- | --- | --- |
| CC(O)CC(=O)O (centres unmarked) [3-HB, 3-hydroxybutyric acid] | 600-1,000 μM | 1 to 2 mM | 2 to 10 mM |  |  |  |  |  |  |  |  |  |  |  |  |  |  |
| C[C@@H](O)CC(=O)O [(R)-3-HB, (R)-3-hydroxybutyrate] |  |  |  | decreased | decreased | decreased | decreased | increased | decreased | decreased | increased | decreased | greater reducing effect than butyrate | greater inducing effect | greater reducing impact | 10 to 100 µM | 318 µM |
